Measured values reported in ChEMBL document CHEMBL2163227, “Synthesis and biological characterization of a series of novel diaryl amide M₁ antagonists” (Bioorg Med Chem Lett, 2012).
The source made the active and inactive calls. The rule behind the calls is not given here.

Assays:
[1] = target: T1, Muscarinic acetylcholine receptor M1 (Homo sapiens, UniProt P11229); experiment: (§1) Antagonist activity at human muscarinic M1 receptor; type: functional
T1 sequence (P11229 whole entry): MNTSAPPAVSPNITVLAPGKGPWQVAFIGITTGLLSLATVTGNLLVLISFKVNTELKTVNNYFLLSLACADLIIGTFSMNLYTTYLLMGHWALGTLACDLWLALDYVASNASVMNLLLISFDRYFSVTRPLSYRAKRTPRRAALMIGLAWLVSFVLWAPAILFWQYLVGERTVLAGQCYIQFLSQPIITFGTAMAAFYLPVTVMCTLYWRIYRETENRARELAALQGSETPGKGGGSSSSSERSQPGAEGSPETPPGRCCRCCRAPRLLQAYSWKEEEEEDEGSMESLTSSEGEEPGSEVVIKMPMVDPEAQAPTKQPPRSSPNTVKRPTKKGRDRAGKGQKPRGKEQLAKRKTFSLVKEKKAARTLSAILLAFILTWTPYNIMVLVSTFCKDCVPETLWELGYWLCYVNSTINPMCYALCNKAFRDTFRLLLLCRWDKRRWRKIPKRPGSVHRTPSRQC

[2] = target: T2, Muscarinic acetylcholine receptor M1 (Homo sapiens) (UniProt P11229); experiment: as §1; type: functional; parameters: concentration or dose not given beside the values
T2 sequence (whole entry): T1 sequence (P11229 whole entry)

[3] = target: T2, Muscarinic acetylcholine receptor M1 (Homo sapiens); experiment: Antagonist activity at human muscarinic M1 receptor at 30 uM; type: functional
[4] = target: T3, Muscarinic acetylcholine receptor M4 (Homo sapiens, UniProt P08173); experiment: Antagonist activity at human muscarinic M4 receptor by calcium mobilization assay; type: functional
T3 sequence (P08173 whole entry): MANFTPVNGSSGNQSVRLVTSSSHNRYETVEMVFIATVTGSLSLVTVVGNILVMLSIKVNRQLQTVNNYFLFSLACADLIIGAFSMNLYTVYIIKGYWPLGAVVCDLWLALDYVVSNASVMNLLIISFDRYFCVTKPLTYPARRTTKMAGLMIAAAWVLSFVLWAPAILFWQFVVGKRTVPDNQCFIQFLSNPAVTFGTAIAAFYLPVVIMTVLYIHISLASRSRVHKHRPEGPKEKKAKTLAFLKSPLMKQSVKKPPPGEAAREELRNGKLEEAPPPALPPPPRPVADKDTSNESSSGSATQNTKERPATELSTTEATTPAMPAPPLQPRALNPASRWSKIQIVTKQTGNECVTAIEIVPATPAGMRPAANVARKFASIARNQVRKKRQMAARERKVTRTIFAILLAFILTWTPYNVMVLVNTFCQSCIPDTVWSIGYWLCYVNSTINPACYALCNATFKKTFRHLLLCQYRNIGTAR

[5] = target: Muscarinic acetylcholine receptor M3 (Homo sapiens, UniProt P20309); experiment: Antagonist activity at human muscarinic M3 receptor by calcium mobilization assay; type: functional
Chain of Muscarinic acetylcholine receptor M3 (P20309 whole entry): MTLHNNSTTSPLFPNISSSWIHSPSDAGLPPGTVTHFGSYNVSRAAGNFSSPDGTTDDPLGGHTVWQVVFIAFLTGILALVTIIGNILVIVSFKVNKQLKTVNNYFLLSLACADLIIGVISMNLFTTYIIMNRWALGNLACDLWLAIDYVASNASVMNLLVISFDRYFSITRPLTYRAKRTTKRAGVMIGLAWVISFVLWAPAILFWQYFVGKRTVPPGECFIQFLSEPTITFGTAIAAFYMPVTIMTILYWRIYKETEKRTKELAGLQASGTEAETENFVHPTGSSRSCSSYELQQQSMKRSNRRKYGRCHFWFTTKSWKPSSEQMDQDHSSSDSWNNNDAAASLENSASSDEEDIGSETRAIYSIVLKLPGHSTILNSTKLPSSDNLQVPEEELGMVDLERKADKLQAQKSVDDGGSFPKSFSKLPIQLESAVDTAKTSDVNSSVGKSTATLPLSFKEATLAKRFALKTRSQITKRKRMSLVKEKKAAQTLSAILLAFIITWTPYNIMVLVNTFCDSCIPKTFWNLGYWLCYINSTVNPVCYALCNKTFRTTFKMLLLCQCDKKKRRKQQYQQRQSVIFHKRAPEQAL

[6] = target: T2, Muscarinic acetylcholine receptor M1 (Homo sapiens); experiment: Antagonist activity at human muscarinic M1 receptor expressed in CHO cells assessed as inhibition of Ach-mediated response by calcium mobilization assay; type: functional, cell-based
[7] = target: T4, Muscarinic acetylcholine receptor M2 (Homo sapiens, UniProt P08172); experiment: Antagonist activity at human muscarinic M2 receptor by calcium mobilization assay; type: functional
T4 sequence (P08172 whole entry): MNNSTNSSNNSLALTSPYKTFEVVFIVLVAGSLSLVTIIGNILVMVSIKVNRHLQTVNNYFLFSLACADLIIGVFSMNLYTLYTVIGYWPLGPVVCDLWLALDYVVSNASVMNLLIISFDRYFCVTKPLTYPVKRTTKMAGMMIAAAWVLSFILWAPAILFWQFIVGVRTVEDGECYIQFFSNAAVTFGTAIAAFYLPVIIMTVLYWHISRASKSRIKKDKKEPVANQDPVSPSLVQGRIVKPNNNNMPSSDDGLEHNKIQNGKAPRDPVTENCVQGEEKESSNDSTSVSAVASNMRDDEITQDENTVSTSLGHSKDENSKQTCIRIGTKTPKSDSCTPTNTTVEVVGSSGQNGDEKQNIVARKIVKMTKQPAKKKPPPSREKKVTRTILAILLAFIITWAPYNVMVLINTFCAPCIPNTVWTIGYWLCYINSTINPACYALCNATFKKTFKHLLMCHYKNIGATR

[8] = target: T5, Muscarinic acetylcholine receptor M5 (Homo sapiens, UniProt P08912); experiment: Antagonist activity at human muscarinic M5 receptor by calcium mobilization assay; type: functional
T5 sequence (P08912 whole entry): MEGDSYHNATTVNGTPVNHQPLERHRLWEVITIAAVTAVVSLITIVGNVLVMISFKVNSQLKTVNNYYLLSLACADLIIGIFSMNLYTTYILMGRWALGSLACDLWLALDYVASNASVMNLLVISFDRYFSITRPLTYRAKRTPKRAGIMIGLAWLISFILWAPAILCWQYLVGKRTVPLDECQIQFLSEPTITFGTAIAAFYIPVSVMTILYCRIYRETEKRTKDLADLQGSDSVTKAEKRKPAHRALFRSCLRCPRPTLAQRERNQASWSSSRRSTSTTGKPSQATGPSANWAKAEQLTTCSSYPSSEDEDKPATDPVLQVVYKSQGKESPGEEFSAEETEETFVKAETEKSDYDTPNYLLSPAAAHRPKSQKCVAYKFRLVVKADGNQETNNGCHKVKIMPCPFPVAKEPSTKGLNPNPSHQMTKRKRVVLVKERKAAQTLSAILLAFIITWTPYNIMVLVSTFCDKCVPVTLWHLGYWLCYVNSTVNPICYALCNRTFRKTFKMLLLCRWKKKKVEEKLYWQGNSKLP

SMILES | IC50 ([1]; read-out: IC50) [nM] | Activity [2] | Activity [3] | other results
CN1CCN(C(=O)[C@](F)(Cc2ccccc2)c2ccccc2)CC1 (mixture of isomers) | 2400 | 2.1% |  | 
CN1C[C@@H]2CN(C(=O)C(Cc3ccccc3)c3ccccc3)C[C@@H]2C1 (some centres not stated) | > 10000 | 6.7% | inactive | 
CN(C)CCOC(=O)C(Cc1ccccc1)c1ccccc1 (configuration not stated) | 140 | 1.5% |  | 
CN1CCN(C(=O)C(C)(Cc2ccccc2)c2ccccc2)CC1 (configuration not stated) | > 10000 | 39.1% |  | 
O=C(C(Cc1ccccc1)c1ccccc1)N1CC[C@H]2CCCN2CC1 (some centres not stated) | 370 | 6.43% |  | IC50 ([1]; read-out: pIC50 (converted)): 2140 nM
O=C(C(Cc1ccccc1)c1ccccc1)N1CCN(CC(F)(F)F)CC1 (configuration not stated) |  | inactive |  | 
CN1CCC(N2CCN(C(=O)C(Cc3ccccc3)c3ccccc3)CC2)CC1 (configuration not stated) |  | inactive |  | 
C[N+]1(C)CCN(C(=O)C(Cc2ccccc2)c2ccccc2)CC1 (configuration not stated) | > 10000 | 8.7% | inactive | 
CN1CCN(C(=O)[C@@](F)(Cc2ccccc2)c2ccccc2)CC1 (mixture of isomers) | 18 | 2.7% |  | IC50 [4]: 140 nM; IC50 [5]: > 1500 nM; inhibition [6]: Dose-dependent effect; IC50 [7]: > 1500 nM; IC50 [8]: 82 nM
O=C(C(Cc1ccccc1)c1ccccc1)N1CCCNCC1 (configuration not stated) | > 10000 | 24.3% | inactive | 
O=C(C(Cc1ccccc1)c1ccccc1)N1CCNCC1 (configuration not stated) | > 10000 | 26.1% | inactive | 
CN1CCN(C(=O)C(Cc2ccccc2)c2ccccc2)CC1c1ccccc1 (configuration not stated) | > 10000 | 62.8% | inactive | 
CC(C)N1CCN(C(=O)C(Cc2ccccc2)c2ccccc2)CC1 (configuration not stated) | 440 | 1.3% |  | 
CN1CCN(C(=O)C(Cc2ccncc2)c2ccccc2)CC1 (configuration not stated) | 880 | 3.5% |  | 
CCN1CCCN(C(=O)C(Cc2ccccc2)c2ccccc2)CC1 (configuration not stated) | 38 | 2.2% |  | 
CC(C)CN1CCN(C(=O)C(Cc2ccccc2)c2ccccc2)CC1 (configuration not stated) | > 10000 | 35.9% | inactive | 
CN1CCN(C(=O)C(F)(Cc2ccccc2)c2ccccc2)CC1 (configuration not stated) | 29 | 3.1% |  | EC50 [1]: 28.2 nM
CN1CCN(C(=O)C2(c3ccccc3)CC2c2ccccc2)CC1 (configuration not stated) | 2500 |  |  | 
CN(C)CCNC(=O)C(Cc1ccccc1)c1ccccc1 (configuration not stated) | > 10000 | 3.5% | inactive | 
CC(C)N1CCCN(C(=O)C(Cc2ccccc2)c2ccccc2)CC1 (configuration not stated) | 100 | 2.4% |  | 

SMILES | IC50 ([1]; read-out: IC50) [nM] | Activity [2] | Activity [3] | other results
O=C(C(Cc1ccccc1)c1ccccc1)N1CCC(N2CCCC2)CC1 (configuration not stated) | 3800 | 3.5% |  | 
CN1CCN(C(=O)/C(=C\c2ccccc2)c2ccccc2)CC1 | 180 |  |  | 
CN1CCN(C(=O)[C@H](Oc2ccccc2)c2ccccc2)CC1 (mixture of isomers) | 240 | 3.4% |  | 
COCCN1CCN(C(=O)C(Cc2ccccc2)c2ccccc2)CC1 (configuration not stated) | > 10000 | 10.9% | inactive | 
O=C(C(Cc1ccccc1)c1ccccc1)N1CCN2CCCCC2C1 (configuration not stated) | 2000 | 0.5% |  | 
CN(C)CCN(C)C(=O)C(Cc1ccccc1)c1ccccc1 (configuration not stated) | > 10000 | 37.1% | inactive | 
O=C(C(Cc1ccccc1)c1ccccc1)N1CCN(c2ccncc2)CC1 (configuration not stated) | > 10000 | 28.5% | inactive | 
CN1CCN(C(=O)C(Cc2ccccc2)c2ccccc2)C(c2ccccc2)C1 (configuration not stated) | > 10000 | 17.2% | inactive | 
CN1CCCN(C(=O)C(Cc2ccccc2)c2ccccc2)CC1 (configuration not stated) | 100 | 2% |  | 
CCN1CCN(C(=O)C(Cc2ccccc2)c2ccccc2)CC1 (configuration not stated) | 570 | 1.8% |  | 
CN1CCN(C(=O)[C@@H](Oc2ccccc2)c2ccccc2)CC1 (racemic) | > 10000 | 107% |  | 
CCN1CCN(C(=O)C(Cc2ccccc2)c2ccccc2)CC1C (configuration not stated) | 260 | 1.4% |  | 
CC1CCN(C)CCN1C(=O)C(Cc1ccccc1)c1ccccc1 (configuration not stated) | > 10000 | 29.6% | inactive | 
CN1CCN(C(=O)C(Cc2ccccc2)c2ccccc2)CC1 (racemic) | 44 | 2.4% |  | 
CN1CCN(C(=O)[C@@H](Cc2ccccc2)c2ccccc2)CC1 |  | inactive |  | 
CC1CN(C(=O)C(Cc2ccccc2)c2ccccc2)CCN1C (configuration not stated) | 100 | 1.4% |  | 
CN1CCN(C(=O)[C@H](Cc2ccccc2)c2ccccc2)CC1 | 33 |  |  | inhibition [6]: Dose-dependent effect
CCN1CCN(C(=O)C(Cc2ccccc2)c2ccccc2)CC1(C)C (configuration not stated) | 90 | 1.5% |  | 
CN1CCN(C(=O)C(Cc2cccnc2)c2ccccc2)CC1 (configuration not stated) | 500 | 1.1% |  | 
